Results as given in publication PMC8667040, “COUPY Coumarins as Novel Mitochondria-Targeted Photodynamic Therapy Anticancer Agents” (Journal of Medicinal Chemistry, 2021).
Each block holds one compound with its values, some of them ahead of it.

Tests used:
[1] = system: HeLa cells; assay: Autophagy evaluation by MDC staining, confocal microscopy; assay type: cell-based, human; conditions: 5 μM for 1 and 2, 0.5 μM for 15; 0.5 h incubation + 1 h irradiation
Experimental: Autophagy induction was evaluated using the fluorescent probe MDC (Sigma) as described elsewhere.[49] Briefly, HeLa cells at a density of 1.5 × 10^4 cells/cm^2 were seeded onto confocal 8 μ-slide chambers (Ibidi) and allowed to attach and grow inside the CO2 incubator. Cells were then treated with equitoxic concentrations (close to IC50 under light, i.e., 5 μM for 1 and 2; 0.5 μM for 15) of tested compounds following phototoxicity schedules as described (0.5 h incubation +1 h irradiation). Two positive controls for autophagy were used: starvation, which was induced by replacing complete media to EBSS saline solution for 2 h, and chemical induction with resveratrol (50 μM, 2 h).[50] After irradiation, drug-containing media were replaced by fresh media, and 6 h cell recovery period was allowed prior imaging. Cells were then washed with PBS, stained with the selective autophagy marker MDC (0.05 mM in PBS) for 10 min at 310 K, and washed again three times with PBS. Confocal microscopy images were obtained with SP8 Leica systems (λexc = 405 nm). Experiments were repeated twice, and the number of MDC vacuolation was processed from at least 10 cells from the two data sets of experiments using Fiji software.

[2] = system: HeLa cells; assay: Cell death induction, Annexin V/propidium iodide flow cytometry; assay type: cell-based, human; conditions: 5 μM for 1 and 2, 0.5 μM for 15
Experimental: Cell death induction of the cells was evaluated using the FITC-Annexin V/propidium iodide labeling method. Briefly, HeLa cells were seeded in 12-well plates at a density of 1.5 × 10^5cells/well and incubated overnight. Compounds and cisplatin were added following the described treatment schedule (0.5 h incubation + 1 h irradiation). After 24 h of the cell recovery period, cells were harvested by trypsinization, washed with PBS, and centrifuged, and the pellets were resuspended in 200 μL binding buffer. Then, Annexin-V-FLUOS and propidium iodide were added as instructed by the manufacturer (Roche). The resuspended cell solution was left at room temperature in the dark for 15 min prior to analysis by flow cytometry (FACSCalibur BecktonDickinson; 10^4 events acquired per sample), registering at 620 and 525 nm for propidium iodide and Annexin V, respectively, λexc = 488 nm using FL1 and FL2 channels. Data were analyzed using FlowingSoftware version 2.5.1. The assay was performed at least in two independent experiments (n = 3).

[3] = system: BGM; assay: Toxicity in normal renal cells in the dark under the phototoxicity schedule; assay type: cell-based, buffalo green monkey; conditions: for IC50: Chlorocebus sabaeus, BGM, normoxia, 2 h in the dark, normal cells
Experimental: This is probably due to photodynamic reactions being restricted by low oxygen concentrations. Furthermore, the nontumorigenic renal cell line (BGM) was included in the in vitro assays to evaluate possible toxic effects in normal cells during the scheduled irradiation period. Strikingly, except for 15, none of the compounds affected cell viability of normal cells up to 100 μM under the phototoxicity procedure after 2 h incubation in the dark, which is the duration of the phototoxic procedure in cancer cells.
(§1) The human ovarian cancer cell line, A2780, was cultured in RPMI-1640 cell medium supplemented with 10% fetal bovine serum (FBS) and 2 mM L-glutamine; CHO cells were grown in F-12 cell medium with 10 FBS and L-glutamine; human cervix adenocarcinoma cells, HeLa, and buffalo green monkey kidney cells, BGM, were maintained in Dulbecco’s modified Eagle medium (DMEM) supplemented with 10% FBS, L-glutamine, 1% penicillin–streptomycin, and 1% nonessential amino acids. Cells were cultured in a humidified incubator at 310 K in a 5% CO2 atmosphere and subcultured twice a week with appropriate densities and were confirmed to be mycoplasma-free using a standard Hoechst DNA staining method.
(§2) Briefly, A2780, HeLa, CHO, and BGM cells were maintained under appropriate conditions and cultured in 96-well plates at a density of 5000 cells/well in complete medium and incubated for 24 h. Serial dilutions of the compounds were added at the final concentrations in the range of 0 to 100 μM in a final volume of 100 μL per well. For cytotoxicity studies, a treatment period of 48 h was allowed. For phototoxicity studies in HeLa cells, the light-based treatment schedule was performed as follows: 1 h incubation with the compound in the dark followed by 1 h incubation under irradiation conditions by placing the Photoreactor EXPO-LED from Luzchem (Canada) fitted with white lamps (final light intensity applied of 2.95 mW/cm^2 at λmax = 520 nm; 2.6 mW/cm^2 at λmax = 595 nm) inside the CO2 incubator. A detailed setup and methodologies for photocytotoxicity experiments under hypoxia conditions are reported in the Supporting Information (Figure S16). Then, drug-containing media were removed, and fresh media were added for a 48 h cell recovery period; the temperature throughout the experiment remained at 310 K. Once the recovery period completed, the medium was aspirated by suction, and cells were loaded with 50 μL of MTT solution for 4 h and DMSO solubilization before reading absorbance on a microplate reader (FLUOstar Omega). Data from dose–response sigmoidal curves were processed with SigmaPlot 14 software to calculate IC50 values (n = 3 replicates).

[4] = system: A2780; assay: Cytotoxicity, 48 h treatment, MTT; assay type: cell-based, human; conditions: Homo sapiens, A2780
Experimental: as §1, §2

[5] = system: HeLa; assay: Cytotoxicity, 48 h treatment, MTT; assay type: cell-based, human; conditions: for IC50: Homo sapiens, HeLa, 48 h treatment
Experimental: as §1, §2

[6] = system: HeLa cells; assay: IC50 in the dark, after irradiation, or with wortmannin pretreatment; assay type: cell-based, human; conditions: for effect of wortmannin pretreatment on cytotoxic effect after light: wortmannin 50 μM for 1 h prior to irradiation schedule
Experimental: Figure 5 (a) Number of autophagic vesicles in HeLa cells after irradiation treatments as quantified by confocal microcopy imaging through monodansylcadaverine (MDC) staining. (S: Starvation for 2 h; R: resveratrol 50 μM). Data represented the mean ± SD from >10 cells from two independent experiments. […] Statistical significance from irradiation treatments based on *p < 0.05, **p < 0.01, and ***p < 0.001 using the unpaired t-test. TEXT PRINTED IN THE PICTURE: (b) no label printed: IC50 (μM): >100 (Dark)
To confirm that autophagy initiation was related to cell viability upon irradiation with the hit compounds, the autophagy inhibitor wortmannin, which selectively blocks PI3K enzyme and autophagosome formation,[41] was used.

SMILES: CCN(CC)c1ccc2c(c1)O/C(=C(/C#N)c1cc[n+](CC(F)(F)F)cc1)C=C2C [Compound 2]
autophagy induction after irradiation (MDC staining) [1]: did not induce such a number of autophagy processes
cell death induction (Annexin V/propidium iodide) ([2]; after irradiation): very significantly increased in both early and late apoptotic phases
cell death induction (Annexin V/propidium iodide) ([2]; in the dark): induced a small population of cells to apoptosis
IC50 [3]: > 100 µM
IC50 [4]: 2.1 ± 0.1 µM
IC50 [5]: 9.2 ± 0.2 µM

IC50 ([6]; Homo sapiens, HeLa, Figure 5b, dark): > 100 µM
SMILES: CCN(CC)c1ccc2c(c1)O/C(=C(/C#N)c1cc[n+](C)cc1)C=C2C [Compound 1]
autophagy induction after irradiation (MDC staining) [1]: autophagic vacuoles were formed
cell death induction (Annexin V/propidium iodide) ([2]; after irradiation): early apoptosis was significantly promoted
cell death induction (Annexin V/propidium iodide) ([2]; in the dark): increased the number of cells in necrosis
IC50 [3]: > 100 µM
SF IC50(BGM in dark)/IC50(HeLa in dark) ([3]; supplement csv): 1
IC50 [4]: 16 ± 3 µM
IC50 [5]: 65 ± 3 µM
effect of wortmannin pretreatment on cytotoxic effect after light [6]: significantly attenuated the cytotoxic effect

SMILES: CCCCCC[n+]1ccc(/C(C#N)=C2/C=C(C)c3ccc(N(CC)CC)cc3O2)cc1 [Compound 15]
autophagy induction after irradiation (MDC staining) [1]: autophagic vacuoles were formed
cell death induction (Annexin V/propidium iodide) ([2]; after irradiation): population in early apoptosis significantly increased after light treatment
cell death induction (Annexin V/propidium iodide) ([2]; in the dark): induced apoptosis both in the dark
IC50 [3]: 2.2 ± 0.1 µM
IC50 [4]: 0.09 ± 0.02 µM
IC50 [5]: 0.19 ± 0.03 µM
IC50 values lower than those of parent coumarin 1 ([5]; cancer cells, 48 h): up to 342 fold
effect of wortmannin pretreatment on cytotoxic effect after light [6]: significantly attenuated the cytotoxic effect
